Test results taken from PubChem BioAssay AID248 (DTP/NCI, 2004).
Inconclusive results and toxic doses are left out. No stated cut-off is given here; in the data, active means T/C of 150% or more; inactive means T/C below 125%.

Test system: L1210 leukemia ip in BDF1 mice, survival T/C
Test: NCI In Vivo Anticancer Drug Screen. Data for tumor model L1210 Leukemia (intraperitoneal) in B6D2F1 (BDF1) mice
Conditions: higher = longer survival
Procedure, shortened: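 Transplantable tumor model; survival measured in treated vs vehicle control mice. Value = treated/control.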

[1] = endpoint: mean survival time, dose: 100.0 mg/kg/injection, schedule: Q04DX003 (ip), vehicle: saline with Tween-80
[2] = endpoint: mean survival time, dose: 200.0 mg/kg/injection, schedule: Q04DX003 (ip), vehicle: saline with Tween-80
[3] = endpoint: mean survival time, dose: 400.0 mg/kg/injection, schedule: Q04DX003 (ip), vehicle: saline with Tween-80
[4] = endpoint: mean survival time, dose: 100.0 mg/kg/injection, schedule: Q04DX003 (ip), vehicle: Klucel (hydroxypropylcellulose) (HPC)
[5] = endpoint: mean survival time, dose: 200.0 mg/kg/injection, schedule: Q04DX003 (ip), vehicle: Klucel (hydroxypropylcellulose) (HPC)
[6] = endpoint: mean survival time, dose: 400.0 mg/kg/injection, schedule: Q04DX003 (ip), vehicle: Klucel (hydroxypropylcellulose) (HPC)
[7] = endpoint: mean survival time, dose: 100.0 mg/kg/injection, schedule: Q01DX009 (ip), vehicle: saline with Tween-80
[8] = endpoint: mean survival time, dose: 100.0 mg/kg/injection, schedule: Q04DX002 (ip), vehicle: Klucel (hydroxypropylcellulose) (HPC)
[9] = endpoint: mean survival time, dose: 200.0 mg/kg/injection, schedule: Q04DX002 (ip), vehicle: Klucel (hydroxypropylcellulose) (HPC)
[10] = endpoint: mean survival time, dose: 400.0 mg/kg/injection, schedule: Q04DX002 (ip), vehicle: Klucel (hydroxypropylcellulose) (HPC)
[11] = endpoint: mean survival time, dose: 100.0 mg/kg/injection, schedule: Q04DX003 (ip), vehicle: saline
[12] = endpoint: mean survival time, dose: 100.0 mg/kg/injection, schedule: Q01DX009 (ip), vehicle: Klucel (hydroxypropylcellulose) (HPC)
[13] = endpoint: mean survival time, dose: 200.0 mg/kg/injection, schedule: Q01DX009 (ip), vehicle: Klucel (hydroxypropylcellulose) (HPC)

Measured: T/C

O=C(O)/C=C\C(=O)Nc1ccc2c(c1)Cc1cc(Cl)ccc1-2
inactive: [1] 92 % of control | [2] 87 % of control

Cc1ccnc(N=Cc2ccccc2)c1
inactive: endpoint: mean survival time, dose: 50.0 mg/kg/injection, schedule: Q01DX001 (ip), vehicle: saline 89 % of control | endpoint: mean survival time, dose: 100.0 mg/kg/injection, schedule: Q01DX001 (ip), vehicle: saline 101 % of control

CCCCCCCC(=O)OCC(=O)[C@]1(O)Cc2c(O)c3c(c(O)c2[C@@H](OC2CC(N)C(O)C(C)O2)C1)C(=O)c1c(OC)cccc1C3=O (some centres not stated)
inactive: endpoint: median survival time, dose: 0.25 mg/kg/injection, schedule: Q03HX024 (ip), vehicle: water 110 % of control | endpoint: median survival time, dose: 1.0 mg/kg/injection, schedule: Q03HX024 (ip), vehicle: water 109 % of control | endpoint: median survival time, dose: 1.0 mg/kg/injection, schedule: Q04DX003 (ip), vehicle: water 115 % of control | endpoint: median survival time, dose: 2.0 mg/kg/injection, schedule: Q03HX008 (ip), vehicle: water 114 % of control | endpoint: median survival time, dose: 2.0 mg/kg/injection, schedule: Q04DX003 (ip), vehicle: water 124 % of control | endpoint: median survival time, dose: 2.5 mg/kg/injection, schedule: Q01DX001 (ip), vehicle: water 121 % of control | endpoint: median survival time, dose: 2.5 mg/kg/injection, schedule: Q08DX002 (ip), vehicle: water 101 % of control | endpoint: median survival time, dose: 4.0 mg/kg/injection, schedule: Q01DX009 (ip), vehicle: water 88 % of control | endpoint: median survival time, dose: 4.0 mg/kg/injection, schedule: Q04DX003 (ip), vehicle: water 111 % of control | endpoint: median survival time, dose: 5.0 mg/kg/injection, schedule: Q08DX002 (ip), vehicle: water 121 % of control | endpoint: median survival time, dose: 10.0 mg/kg/injection, schedule: Q01DX001 (ip), vehicle: water 121 % of control | endpoint: median survival time, dose: 10.0 mg/kg/injection, schedule: Q08DX002 (ip), vehicle: water 121 % of control | endpoint: median survival time, dose: 20.0 mg/kg/injection, schedule: Q08DX002 (ip), vehicle: water 96 % of control

CCCCCCCCCCCCC(=O)OC
inactive: [1] 101 % of control | [2] 96 % of control | [3] 98 % of control

CC1(C)C2CC3C(=CCCC3C(=O)O)C1C2 (configuration not stated)
inactive: [4] 97 % of control | [5] 103 % of control | [6] 95 % of control

COc1ccc(OC)c(NC(=O)N(Cc2ccccc2)Cc2ccccc2)c1
inactive: [4] 93 % of control | [5] 87 % of control | [6] 88 % of control

CC(=O)Nc1ccc(/C=C(\C#N)c2ccc(C)cc2)cc1
inactive: [1] 87 % of control | [2] 90 % of control | [3] 101 % of control

CN(CCCCC(=O)NC(CCC(=O)O)C(=O)O)Cc1cnc2nc(N)nc(N)c2n1 (configuration not stated)
inactive: endpoint: mean survival time, dose: 20.0 mg/kg/injection, schedule: Q01DX009 (ip), vehicle: saline 94 % of control | endpoint: mean survival time, dose: 40.0 mg/kg/injection, schedule: Q01DX009 (ip), vehicle: saline 112 % of control | endpoint: mean survival time, dose: 80.0 mg/kg/injection, schedule: Q01DX009 (ip), vehicle: saline 94 % of control

CN(C)N=Nc1ccc(C(=O)N/N=C/c2ccc([N+](=O)[O-])cc2)cc1
inactive: endpoint: mean survival time, dose: 100.0 mg/kg/injection, schedule: Q04DX002 (ip), vehicle: saline with Tween-80 100 % of control | endpoint: mean survival time, dose: 200.0 mg/kg/injection, schedule: Q04DX002 (ip), vehicle: saline with Tween-80 94 % of control | endpoint: mean survival time, dose: 400.0 mg/kg/injection, schedule: Q04DX002 (ip), vehicle: saline with Tween-80 99 % of control

COP(=O)(OC)C1C2CC3C(C2)C31 (configuration not stated)
inactive: endpoint: mean survival time, dose: 100.0 mg/kg/injection, schedule: Q04DX003 (ip), vehicle: acetone 103 % of control | endpoint: mean survival time, dose: 200.0 mg/kg/injection, schedule: Q04DX003 (ip), vehicle: acetone 97 % of control | endpoint: mean survival time, dose: 400.0 mg/kg/injection, schedule: Q04DX003 (ip), vehicle: acetone 100 % of control

COc1cc(N)c([N+](=O)[O-])c(OC)c1
inactive: endpoint: mean survival time, dose: 25.0 mg/kg/injection, schedule: Q01DX009 (ip), vehicle: saline with Tween-80 98 % of control | endpoint: mean survival time, dose: 50.0 mg/kg/injection, schedule: Q01DX009 (ip), vehicle: saline with Tween-80 104 % of control | [7] 100 % of control | [1] 106 % of control

CCCCC(CC)CCC(O)CC (configuration not stated)
inactive: [7] 98 % of control | [1] 98 % of control | endpoint: mean survival time, dose: 200.0 mg/kg/injection, schedule: Q01DX009 (ip), vehicle: saline with Tween-80 101 % of control | [2] 95 % of control | endpoint: mean survival time, dose: 400.0 mg/kg/injection, schedule: Q01DX009 (ip), vehicle: saline with Tween-80 97 % of control | [3] 98 % of control

C[C@@H]1C[C@](O)([C@@H](C)Cl)C(=O)O[C@@H]2CCN3CC=C(COC(=O)[C@]1(C)O)[C@H]23
inactive: endpoint: mean survival time, dose: 3.0 mg/kg/injection, schedule: Q01DX Z (ip), vehicle: saline 107 % of control | endpoint: mean survival time, dose: 6.0 mg/kg/injection, schedule: Q01DX Z (ip), vehicle: saline 103 % of control | endpoint: mean survival time, dose: 12.0 mg/kg/injection, schedule: Q01DX Z (ip), vehicle: saline 100 % of control | endpoint: mean survival time, dose: 24.0 mg/kg/injection, schedule: Q01DX Z (ip), vehicle: saline 103 % of control

CCCCCCCCCCCCC(=O)N(CCC)CCC
inactive: [8] 98 % of control | [9] 98 % of control | [10] 102 % of control

C/C=C\C=N\N(C)C
inactive: endpoint: mean survival time, dose: 50.0 mg/kg/injection, schedule: Q01DX009 (ip), vehicle: saline 110 % of control | endpoint: mean survival time, dose: 100.0 mg/kg/injection, schedule: Q01DX009 (ip), vehicle: saline 106 % of control | [11] 102 % of control | endpoint: mean survival time, dose: 200.0 mg/kg/injection, schedule: Q04DX003 (ip), vehicle: saline 97 % of control

CCCCCCCC(=O)N1CCCCC1C (configuration not stated)
inactive: [8] 103 % of control | [9] 103 % of control | [10] 98 % of control

CCNC(=O)NCc1ccc(C)cc1
inactive: [8] 102 % of control | [9] 105 % of control | [10] 112 % of control

CN(C)C(=O)c1ccc[n+](Cc2ccc(Cl)c(Cl)c2)c1
inactive: [11] 88 % of control

O=C1c2ccccc2C(=O)c2c(O)cccc21
inactive: [4] 101 % of control | [5] 89 % of control | [6] 105 % of control

CCCCCCCCCCCCNC(=O)Nc1cc(C)ccc1C
inactive: [12] 97 % of control | [4] 94 % of control | [13] 86 % of control | [5] 95 % of control | endpoint: mean survival time, dose: 400.0 mg/kg/injection, schedule: Q01DX009 (ip), vehicle: Klucel (hydroxypropylcellulose) (HPC) 86 % of control | [6] 97 % of control

CCN(CC)C(=O)C1CN2CCc3cc(OC)c(OC)cc3C2CC1OC(C)=O (configuration not stated)
inactive: endpoint: mean survival time, dose: 6.25 mg/kg/injection, schedule: Q01DX009 (ip), vehicle: Klucel (hydroxypropylcellulose) (HPC) 94 % of control | endpoint: mean survival time, dose: 12.5 mg/kg/injection, schedule: Q01DX009 (ip), vehicle: Klucel (hydroxypropylcellulose) (HPC) 97 % of control | endpoint: mean survival time, dose: 25.0 mg/kg/injection, schedule: Q01DX001 (ip), vehicle: water 92 % of control | endpoint: mean survival time, dose: 25.0 mg/kg/injection, schedule: Q01DX009 (ip), vehicle: Klucel (hydroxypropylcellulose) (HPC) 94 % of control | endpoint: mean survival time, dose: 25.0 mg/kg/injection, schedule: Q04DX003 (ip), vehicle: Klucel (hydroxypropylcellulose) (HPC) 103 % of control | endpoint: mean survival time, dose: 50.0 mg/kg/injection, schedule: Q01DX001 (ip), vehicle: water 111 % of control | endpoint: mean survival time, dose: 50.0 mg/kg/injection, schedule: Q01DX009 (ip), vehicle: Klucel (hydroxypropylcellulose) (HPC) 103 % of control | endpoint: mean survival time, dose: 50.0 mg/kg/injection, schedule: Q04DX003 (ip), vehicle: Klucel (hydroxypropylcellulose) (HPC) 100 % of control | endpoint: mean survival time, dose: 100.0 mg/kg/injection, schedule: Q01DX001 (ip), vehicle: water 97 % of control | [12] 103 % of control | [4] 97 % of control | [13] 115 % of control
